Here are results for eight molecules from ChEMBL document CHEMBL1201862, “PubChem BioAssay data set” (2004).

Data set [1] in a line: blockers of HIV-1 ZM109 envelope-driven cell-cell fusion – HeLa effector, CEM target cells, luciferase, cherry-pick, dose response (AID 652058).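 Note: luciferase signal from HIV-1 Env mediated cell-cell fusion of effector and target cells.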 The format is functional, cell-based.
In data set [2] the test system is HEK293. The data set can be described thus: cells. As to conditions: Homo sapiens.
Data set [3] is described as follows: off-target signal loss in HeLa-CEM21 co-culture – HeLa F-luc CTL cells, cherry-picked, counter-screen for HIV-1 Env fusion inhibitor project, dose response (AID 652040).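 Note: potency for signal decrease marking cytotoxic or nonspecific inhibition.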 It counts as functional, cell-based.
A short description of data set [4]: blockers of HIV-1 envelope-mediated cell-cell fusion – cherry-pick, dose response (AID 652057). The format is functional, cell-based.
The nature of data set [5]: HIV-1 AD8 envelope cell-cell fusion blockers – cherry-pick, dose response (AID 652062).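 Note: luciferase signal from cell-cell fusion driven by HIV-1 clade B AD8 Env; potency is for inhibitors of fusion seen as a drop in luminescence.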 The format is functional, cell-based.
The subject of data set [6] is HEK293. Description: cells. The conditions noted are these: Homo sapiens. This is another data set of the same source.
For data set [7], the target named is Cytochrome P450 2C19 (Homo sapiens, UniProt P33261). The data set can be described thus: Cytochrome panel assay with activity outcomes. Panel member name: p450-cyp2c19 Compounds with AC50 equal or less than 10 uM are considered active. The conditions noted are these: read-out: AC50. The format is functional.
The target of data set [8] is Induced myeloid leukemia cell differentiation protein Mcl-1 (Homo sapiens, UniProt Q07820). The format is functional.
The target in data set [9] is T1, Aryl hydrocarbon receptor (Homo sapiens, UniProt P35869).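 Note: confirmatory quantitative high-throughput screen measuring activation of the AhR signaling pathway.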
T1 sequence (P35869 whole entry): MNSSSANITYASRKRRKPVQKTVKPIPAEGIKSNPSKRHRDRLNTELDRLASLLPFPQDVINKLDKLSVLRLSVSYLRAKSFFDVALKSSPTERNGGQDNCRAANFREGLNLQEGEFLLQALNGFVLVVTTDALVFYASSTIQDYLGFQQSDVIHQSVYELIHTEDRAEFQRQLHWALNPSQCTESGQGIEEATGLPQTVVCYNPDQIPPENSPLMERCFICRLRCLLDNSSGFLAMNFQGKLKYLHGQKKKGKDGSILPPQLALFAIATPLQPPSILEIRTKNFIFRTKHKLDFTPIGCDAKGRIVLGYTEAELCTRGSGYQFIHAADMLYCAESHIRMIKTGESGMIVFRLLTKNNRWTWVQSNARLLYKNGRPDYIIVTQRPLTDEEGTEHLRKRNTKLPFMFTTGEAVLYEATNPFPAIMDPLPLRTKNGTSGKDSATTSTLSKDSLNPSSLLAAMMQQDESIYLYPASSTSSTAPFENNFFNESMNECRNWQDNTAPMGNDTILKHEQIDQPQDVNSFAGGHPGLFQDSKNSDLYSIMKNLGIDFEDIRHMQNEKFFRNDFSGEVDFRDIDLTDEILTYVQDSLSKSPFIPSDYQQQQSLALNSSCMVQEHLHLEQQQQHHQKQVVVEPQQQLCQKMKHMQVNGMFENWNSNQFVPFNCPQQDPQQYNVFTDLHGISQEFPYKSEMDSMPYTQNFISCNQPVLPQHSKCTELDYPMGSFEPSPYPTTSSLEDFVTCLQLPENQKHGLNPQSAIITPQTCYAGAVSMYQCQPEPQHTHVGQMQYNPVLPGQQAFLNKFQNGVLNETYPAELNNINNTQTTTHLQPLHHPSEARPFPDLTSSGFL
The conditions noted are these: Potency.

In data set [10] the target is Cytochrome P450 2D6 (Homo sapiens, UniProt P10635).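 Note: CYP2D6 member of a cytochrome P450 panel assay.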
Data set [11] has as its target T2, Cytochrome P450 1A2 (Homo sapiens, UniProt P05177).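 Note: PubChem cytochrome P450 panel assay, CYP1A2 panel member.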
T2 sequence (P05177 whole entry): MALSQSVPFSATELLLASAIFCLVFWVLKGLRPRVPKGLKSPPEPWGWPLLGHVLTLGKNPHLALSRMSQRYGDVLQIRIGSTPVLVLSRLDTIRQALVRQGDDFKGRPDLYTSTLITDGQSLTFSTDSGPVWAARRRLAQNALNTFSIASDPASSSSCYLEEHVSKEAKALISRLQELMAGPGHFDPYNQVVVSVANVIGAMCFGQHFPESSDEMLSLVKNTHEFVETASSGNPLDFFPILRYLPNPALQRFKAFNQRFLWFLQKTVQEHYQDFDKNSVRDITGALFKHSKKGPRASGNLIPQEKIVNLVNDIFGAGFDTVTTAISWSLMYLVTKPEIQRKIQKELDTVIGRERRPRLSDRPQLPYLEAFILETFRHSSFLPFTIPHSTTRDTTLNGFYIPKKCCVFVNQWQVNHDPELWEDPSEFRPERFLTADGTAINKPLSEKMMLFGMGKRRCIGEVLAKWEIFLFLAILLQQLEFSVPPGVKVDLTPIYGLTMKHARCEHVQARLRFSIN

Data set [12] addresses T3, Cytochrome P450 2C9 (Homo sapiens, UniProt P11712).
The target of data set [13] is Voltage-gated inwardly rectifying potassium channel KCNH2 (Homo sapiens, UniProt Q12809). As to conditions: Potency.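 Note: confirmatory quantitative high-throughput screen measuring inhibition of hERG channel activity.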
Data set [14] is described as follows: microbe, parasite or virus in culture. It counts as functional. The conditions noted are these: Mycobacterium tuberculosis.
Data set [15] deals with T3, Cytochrome P450 2C9. The source holds these as a separate data set.
The nature of data set [16]: NIH-3T3 fibroblast cytotoxicity, dose response, cytotoxicity control, cell-based, fluorescence, Alamar Blue, secondary assay (AID 2327).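 Note: NIH-3T3 mouse fibroblasts cultured with fluconazole at 8 µg/mL.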 It counts as functional.
A short description of data set [17]: fluconazole-exposed Candida albicans growth modulators – fluorescence, retest, confirmation (AID 2467). The format is functional, cell-based.
Data set [18] is described as follows: NIH3T3 cell viability loss – ATP luminescence, mouse fibroblasts, counter-screen, dose response (AID 2010).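 Note: cells exposed to compound for about 90 hours before reading.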 It counts as functional, cell-based.
Data set [19] addresses T4, Microphthalmia-associated transcription factor (Homo sapiens, UniProt O75030).
T4 sequence (O75030 whole entry): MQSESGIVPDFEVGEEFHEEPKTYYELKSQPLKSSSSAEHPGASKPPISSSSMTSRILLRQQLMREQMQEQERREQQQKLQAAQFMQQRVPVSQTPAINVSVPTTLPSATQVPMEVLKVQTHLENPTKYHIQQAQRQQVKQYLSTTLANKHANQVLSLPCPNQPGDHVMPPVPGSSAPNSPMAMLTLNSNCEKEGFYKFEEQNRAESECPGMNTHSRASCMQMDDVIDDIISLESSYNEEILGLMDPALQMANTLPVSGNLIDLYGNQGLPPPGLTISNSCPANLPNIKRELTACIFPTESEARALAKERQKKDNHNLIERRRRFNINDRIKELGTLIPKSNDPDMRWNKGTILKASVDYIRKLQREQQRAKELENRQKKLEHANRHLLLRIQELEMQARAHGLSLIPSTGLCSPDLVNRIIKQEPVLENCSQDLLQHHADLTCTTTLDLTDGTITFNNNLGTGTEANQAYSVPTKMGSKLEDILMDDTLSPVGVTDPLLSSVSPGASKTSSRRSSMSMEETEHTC
The data set can be described thus: reducers of TRPM1 reporter luminescence, concentration series – cell-based, SK-MEL-5, cherry-picked, set 3, MITF inhibitor project, dose response (AID 493073).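 Note: SK-MEL-5 melanoma cells with luciferase driven by the MITF target TRPM1 promoter.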 The format is functional.

Data set [20] has as its target T5, Protein RecA (Mycobacterium tuberculosis, UniProt P9WHJ3).
T5 sequence (P9WHJ3 whole entry): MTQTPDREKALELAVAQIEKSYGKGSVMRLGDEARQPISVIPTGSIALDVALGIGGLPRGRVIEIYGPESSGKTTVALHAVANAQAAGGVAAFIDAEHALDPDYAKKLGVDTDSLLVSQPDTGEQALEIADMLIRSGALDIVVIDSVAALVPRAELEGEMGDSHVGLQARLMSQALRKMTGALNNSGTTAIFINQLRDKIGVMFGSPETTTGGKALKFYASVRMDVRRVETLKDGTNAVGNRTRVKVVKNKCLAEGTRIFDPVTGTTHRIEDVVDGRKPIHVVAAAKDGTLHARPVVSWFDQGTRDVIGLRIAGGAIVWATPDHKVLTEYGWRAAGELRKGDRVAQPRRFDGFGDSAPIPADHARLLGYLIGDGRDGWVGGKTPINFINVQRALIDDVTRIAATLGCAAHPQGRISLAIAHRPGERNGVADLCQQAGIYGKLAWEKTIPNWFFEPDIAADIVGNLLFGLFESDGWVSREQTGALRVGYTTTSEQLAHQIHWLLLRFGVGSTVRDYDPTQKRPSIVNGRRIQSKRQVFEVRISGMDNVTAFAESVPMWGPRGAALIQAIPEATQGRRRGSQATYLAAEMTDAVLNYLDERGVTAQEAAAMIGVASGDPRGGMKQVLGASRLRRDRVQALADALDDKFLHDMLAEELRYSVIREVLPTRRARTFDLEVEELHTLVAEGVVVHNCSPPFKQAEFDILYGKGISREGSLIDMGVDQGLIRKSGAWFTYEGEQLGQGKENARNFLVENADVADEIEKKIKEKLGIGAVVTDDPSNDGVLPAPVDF
The data set can be described thus: Fluorescence Cell-Free Homogeneous Dose Retest to Identify Inhibitors of RecA-Intein Splicing Activity. [Related pubchem assays (depositor defined):AID2097, AID2223, AID489010, AID492950]. It counts as functional.

For data set [21], the target named is T6, Replicative DNA helicase DnaB (Mycobacterium tuberculosis, UniProt P9WMR3).
T6 sequence (P9WMR3 whole entry): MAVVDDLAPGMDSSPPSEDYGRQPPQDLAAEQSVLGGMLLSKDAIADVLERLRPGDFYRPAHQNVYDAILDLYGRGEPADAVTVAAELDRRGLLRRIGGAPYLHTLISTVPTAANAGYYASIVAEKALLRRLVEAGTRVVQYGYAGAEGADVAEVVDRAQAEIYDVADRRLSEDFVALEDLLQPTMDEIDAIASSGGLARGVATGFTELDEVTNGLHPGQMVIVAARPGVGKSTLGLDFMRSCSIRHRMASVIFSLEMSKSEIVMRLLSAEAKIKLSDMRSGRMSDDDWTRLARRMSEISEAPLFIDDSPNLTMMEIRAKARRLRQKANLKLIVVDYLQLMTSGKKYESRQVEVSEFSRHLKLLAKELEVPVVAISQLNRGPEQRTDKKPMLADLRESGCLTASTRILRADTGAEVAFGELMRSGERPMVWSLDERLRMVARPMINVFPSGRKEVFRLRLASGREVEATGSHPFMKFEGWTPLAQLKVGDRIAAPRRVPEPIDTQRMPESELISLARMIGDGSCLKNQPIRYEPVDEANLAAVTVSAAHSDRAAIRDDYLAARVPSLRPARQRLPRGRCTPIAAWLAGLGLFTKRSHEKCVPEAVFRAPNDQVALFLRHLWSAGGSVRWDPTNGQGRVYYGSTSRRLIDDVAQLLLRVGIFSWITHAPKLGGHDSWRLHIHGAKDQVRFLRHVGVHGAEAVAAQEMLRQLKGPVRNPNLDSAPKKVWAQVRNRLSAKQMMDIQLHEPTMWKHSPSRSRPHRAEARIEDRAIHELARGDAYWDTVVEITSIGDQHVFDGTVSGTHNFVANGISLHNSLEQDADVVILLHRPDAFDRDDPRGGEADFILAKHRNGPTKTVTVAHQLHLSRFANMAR
The data set can be described thus: DnaB intein splicing inhibitors, dose response, biochemical, cell-free fluorescence (AID 449749). It counts as functional.

Data set [22] has as its system A-375. The data set can be described thus: proliferation inhibition in MITF-low A375 cells – cell-based, cherry-pick samples, set 2, counter-screen for MITF modulator project, dose response (AID 540335). The format is functional. The conditions noted are these: Homo sapiens.
Data set [23] can be described thus: Trypanosoma cruzi growth suppression in host cells – NIH3T3 host cells, beta-gal luminescence, confirmation (AID 2044).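 Note: intracellular parasites grown in NIH/3T3 mouse fibroblasts as host cells; luminescent beta-galactosidase reporter signal from transgenic T. cruzi replicating inside host cells; inhibitors lower the luminescence signal.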 The format is functional, cell-based.

Active and inactive are the calls of the source.

Voltage-gated inwardly rectifying potassium channel KCNH2, sequence (Q12809 whole entry): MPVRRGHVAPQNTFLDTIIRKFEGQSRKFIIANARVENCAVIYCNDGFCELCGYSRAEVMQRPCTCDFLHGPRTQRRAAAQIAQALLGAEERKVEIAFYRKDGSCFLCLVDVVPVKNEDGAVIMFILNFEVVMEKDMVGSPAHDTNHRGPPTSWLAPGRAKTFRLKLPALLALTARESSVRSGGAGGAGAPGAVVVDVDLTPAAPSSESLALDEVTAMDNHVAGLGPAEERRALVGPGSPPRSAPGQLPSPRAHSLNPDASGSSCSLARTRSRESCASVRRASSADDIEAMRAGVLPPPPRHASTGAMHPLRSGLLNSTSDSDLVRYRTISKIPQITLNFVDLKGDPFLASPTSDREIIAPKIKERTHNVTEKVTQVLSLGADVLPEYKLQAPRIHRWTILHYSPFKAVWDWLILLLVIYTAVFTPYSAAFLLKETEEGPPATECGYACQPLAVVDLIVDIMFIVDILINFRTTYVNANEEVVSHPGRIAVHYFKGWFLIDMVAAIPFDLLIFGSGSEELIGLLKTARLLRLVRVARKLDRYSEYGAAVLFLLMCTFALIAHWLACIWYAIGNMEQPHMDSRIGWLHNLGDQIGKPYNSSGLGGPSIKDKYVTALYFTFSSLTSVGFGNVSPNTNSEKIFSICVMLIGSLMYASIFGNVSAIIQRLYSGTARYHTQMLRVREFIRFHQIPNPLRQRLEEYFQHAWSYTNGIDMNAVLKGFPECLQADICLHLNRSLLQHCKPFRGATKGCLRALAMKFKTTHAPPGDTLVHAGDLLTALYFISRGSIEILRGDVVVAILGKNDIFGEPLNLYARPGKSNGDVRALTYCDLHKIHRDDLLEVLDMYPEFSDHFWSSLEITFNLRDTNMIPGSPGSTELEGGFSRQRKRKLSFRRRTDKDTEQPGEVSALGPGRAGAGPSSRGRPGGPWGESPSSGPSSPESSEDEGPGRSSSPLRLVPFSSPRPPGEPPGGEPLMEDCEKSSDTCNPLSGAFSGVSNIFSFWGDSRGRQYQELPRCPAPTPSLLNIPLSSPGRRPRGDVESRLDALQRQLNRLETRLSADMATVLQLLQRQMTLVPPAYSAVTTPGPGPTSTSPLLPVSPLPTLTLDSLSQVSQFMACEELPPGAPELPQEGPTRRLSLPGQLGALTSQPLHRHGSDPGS
T3 sequence (P11712 whole entry): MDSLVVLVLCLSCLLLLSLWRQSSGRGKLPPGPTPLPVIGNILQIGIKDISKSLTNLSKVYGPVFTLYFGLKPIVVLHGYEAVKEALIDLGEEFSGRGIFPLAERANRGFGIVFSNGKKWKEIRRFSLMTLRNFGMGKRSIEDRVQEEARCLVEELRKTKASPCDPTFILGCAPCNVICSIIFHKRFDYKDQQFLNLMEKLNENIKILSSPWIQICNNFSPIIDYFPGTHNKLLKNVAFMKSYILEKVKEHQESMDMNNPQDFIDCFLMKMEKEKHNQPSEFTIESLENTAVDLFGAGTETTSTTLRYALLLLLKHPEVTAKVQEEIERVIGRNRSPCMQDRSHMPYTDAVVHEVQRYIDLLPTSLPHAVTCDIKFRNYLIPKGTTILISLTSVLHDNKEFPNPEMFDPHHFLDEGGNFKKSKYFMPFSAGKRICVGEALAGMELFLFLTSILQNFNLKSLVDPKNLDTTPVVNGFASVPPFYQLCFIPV
Cytochrome P450 2D6, sequence (P10635 whole entry): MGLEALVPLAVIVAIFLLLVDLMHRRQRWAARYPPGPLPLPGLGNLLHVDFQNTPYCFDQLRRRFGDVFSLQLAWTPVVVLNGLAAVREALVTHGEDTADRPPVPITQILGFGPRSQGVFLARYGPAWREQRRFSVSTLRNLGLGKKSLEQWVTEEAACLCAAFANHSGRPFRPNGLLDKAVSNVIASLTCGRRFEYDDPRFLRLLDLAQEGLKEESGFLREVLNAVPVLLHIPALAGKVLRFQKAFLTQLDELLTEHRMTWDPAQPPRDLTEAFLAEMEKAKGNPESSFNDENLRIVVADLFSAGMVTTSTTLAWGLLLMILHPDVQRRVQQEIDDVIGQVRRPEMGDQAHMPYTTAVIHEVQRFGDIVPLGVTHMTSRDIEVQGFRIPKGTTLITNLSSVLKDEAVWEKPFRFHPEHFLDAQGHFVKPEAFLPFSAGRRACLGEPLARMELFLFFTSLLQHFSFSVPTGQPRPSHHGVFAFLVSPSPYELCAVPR
Cytochrome P450 2C19, sequence (P33261 whole entry): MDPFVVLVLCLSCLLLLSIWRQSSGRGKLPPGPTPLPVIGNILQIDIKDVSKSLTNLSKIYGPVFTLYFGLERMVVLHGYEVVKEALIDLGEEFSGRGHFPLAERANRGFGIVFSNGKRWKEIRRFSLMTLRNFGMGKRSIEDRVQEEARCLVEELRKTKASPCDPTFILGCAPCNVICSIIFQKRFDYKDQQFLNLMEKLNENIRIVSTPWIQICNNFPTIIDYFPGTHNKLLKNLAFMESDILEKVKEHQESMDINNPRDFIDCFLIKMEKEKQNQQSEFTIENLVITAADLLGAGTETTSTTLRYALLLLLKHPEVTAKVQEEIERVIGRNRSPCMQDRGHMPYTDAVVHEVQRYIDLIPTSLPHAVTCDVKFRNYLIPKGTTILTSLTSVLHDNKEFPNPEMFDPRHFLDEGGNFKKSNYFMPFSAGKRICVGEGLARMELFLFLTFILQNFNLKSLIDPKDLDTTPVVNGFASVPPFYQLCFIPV
Induced myeloid leukemia cell differentiation protein Mcl-1, sequence (Q07820 whole entry): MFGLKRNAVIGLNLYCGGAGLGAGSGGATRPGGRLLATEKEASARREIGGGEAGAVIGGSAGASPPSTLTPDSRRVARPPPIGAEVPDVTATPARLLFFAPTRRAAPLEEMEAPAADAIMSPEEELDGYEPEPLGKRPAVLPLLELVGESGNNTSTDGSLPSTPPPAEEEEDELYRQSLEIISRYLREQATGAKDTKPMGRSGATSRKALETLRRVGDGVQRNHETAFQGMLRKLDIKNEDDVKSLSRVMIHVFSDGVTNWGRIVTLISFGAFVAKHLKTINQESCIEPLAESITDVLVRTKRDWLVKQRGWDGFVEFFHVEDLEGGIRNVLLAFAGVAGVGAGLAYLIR

On to `C[C@@]12C(=O)N(CCc3c[nH]c4ccccc34)CC(=O)N1[C@H]1c3ccccc3OC[C@@H]1[C@@H]2c1ccccc1`, for which the AC50 in data set [1] was 2.7 µM (active); in [3], 3.73 µM (active); in [4], 2.67 µM (active); in data set [5] it was 4.46 µM (active). Moreover, the EC50 in [2] and in data set [6] was > 59.7 µM (inactive) each time.
For `COc1ccc2[nH]c([S+]([O-])Cc3ncc(C)c(OC)c3C)nc2c1` (stereo not given) [OMEPRAZOLE], the AC50 in data set [7] was 2.51 µM (active); in data set [9], 20 µM (inconclusive); in [10], “inactive”; in data set [11] it was 31.6 µM (inconclusive); in [12] it was “inactive”. Further, in data set [8], the IC50 is 3.14 µM (active).
Turning to `CCCCCC(O)c1cccc(OCc2ccc3ccccc3n2)c1` (stereo not given) [REV-5901], the concentration at half-maximal activity (AC50) in data set [13] is 35.5 µM (inconclusive). Also, the CC50 in data set [14] is > 40 µM (active).
`COc1ccc(CC(C)NCC(O)c2ccc(O)c(NC=O)c2)cc1` (stereo not given): the EC50 in data set [2] and in data set [6] was > 59.6 µM (inactive) throughout.
On to `CCCCCCN(CCCCCC)C(=O)Cc1c(-c2ccc(F)cc2)[nH]c2ccccc12`, for which the figures for the AC50 in data set [13], in [15] and in data set [11] were 8.91 µM (inconclusive), 5.01 µM (inconclusive) and 15.8 µM (inconclusive), respectively.
Turning to `O=C(CCl)N1c2ccccc2CCc2ccccc21`, the EC50 in [16] is 5.37 µM (inconclusive); in data set [17], 2.36 µM (active); in data set [18], 4.26 µM (active); in [20], 0.45 µM (active); in data set [23] it was 2.09 µM (active). Besides, the AC50 was 5.54 µM (active) in [19], 7.5 µM (active) in data set [21] and 42.7 µM (active) in [22].
On to `CCCCCCCCCCCCCC(=O)O[C@@H]1[C@@H](C)[C@@]2(O)[C@@H](C=C(CO)C[C@@]3(O)C(=O)C(C)=C[C@@H]23)C2C(C)(C)[C@@]21OC(C)=O` (stereo not given in full), for which, in data set [13], the AC50 was 0.112 µM (inconclusive).
With `Cc1ccc(S(=O)(=O)Cn2nnnc2C(C(C)C)N2CCc3ccccc3C2)cc1` (stereo not given), the EC50 in data set [2] and in data set [6] was > 59.6 µM (inactive) in each case.
